Reference: patent US9005575B2, “Arg-Gly-Asp-conjugated alpha-melanocyte stimulating hormone hybrid peptide for use in diagnosing and treating melanoma, including metastatic melanoma and methods related to same” (STC.UNM, priority 2009, dated 2015)
Read-outs that look alike come from different tables or passages of the source. Positions of bridges follow the written chain, without caps; N, C: chain ends. Non-standard residues stand in square brackets, D forms with d. Residues, ends and D or L forms follow the SMILES beside them.

Assay: Biodistribution in B16/F1 melanoma-bearing C57 mice
Format: in vivo
Settings: female, C57, mouse, iv, total radioactivity; for tissue uptake at 0.5 h / tissue to tissue ratio at 0.5 h: 0.5 h post-injection; for tissue uptake at 2 h / tissue to tissue ratio at 2 h: 2 h post-injection; for tissue uptake at 4 h / tissue to tissue ratio at 4 h: 4 h post-injection; for tissue uptake at 24 h / tissue to tissue ratio at 24 h: 24 h post-injection
Description: All the animal studies were conducted in compliance with Institutional Animal Care and Use Committee approval. The pharmacokinetics of ^99mTc-RGD-Lys-(Arg^11)CCMSH was determined in B16/F1 melanoma-bearing C57 female mice (Harlan, Indianapolis, Ind.). C57 mice were subcutaneously inoculated on the right flank with 1×10^6 B16/F1 cells. The weight of tumors reached approximately 0.2 g 10 days post cell inoculation. Each melanoma-bearing mouse was injected with 0.037 MBq of ^99mTc-RGD-Lys-(Arg^11)CCMSH via the tail vein. Groups of 5 mice were sacrificed at 0.5, 2, 4 and 24 h post-injection, and tumors and organs of interest were harvested, weighed and counted. Blood values were taken as 6.5% of the whole-body weight. The MC1 receptor specificity of the tumor uptake was determined at 2 h post-injection by co-injecting ^99mTc-RGD-Lys-(Arg^11)CCMSH with 10 μg (6.1 nmol) of unlabeled NDP-MSH, a linear α-MSH peptide analogue with picomolar affinity for the MC1 receptors present on murine melanoma cells. The co-injection of 3.5 μg (6.1 nmol) of RGD peptide was performed to determine the αvβ3 integrin specificity of the tumor uptake 2 h post-injection. Statistical analysis was performed using the Student's t-test for unpaired data.
All the animal studies were conducted in compliance with Institutional Animal Care and Use Committee approval. The pharmacokinetics of ^99mTc-RGD-Arg-(Arg^11)CCMSH was determined in B16/F1 melanoma-bearing C57 female mice (Harlan, Indianapolis, Ind.). C57 mice were subcutaneously inoculated on the right flank with 1×10^6 B16/F1 cells. The weight of tumors reached approximately 0.2 g 10 days post cell inoculation. Each melanoma-bearing mouse was injected with 0.037 MBq of ^99mTc-RGD-Arg-(Arg^11)CCMSH via the tail vein. Groups of 5 mice were sacrificed at 0.5, 2, 4 and 24 h post-injection, and tumors and organs of interest were harvested, weighed and counted. Blood values were taken as 6.5% of the whole-body weight. The MC1 receptor specificity of the tumor uptake was determined at 2 h post-injection by co-injecting ^99mTc-RGD-Arg-(Arg^11)CCMSH with 10 μg (6.1 nmol) of unlabeled NDP-MSH. The co-injection of 3.5 μg (6.1 nmol) of RGD peptide was performed to determine the αvβ3 integrin specificity of the tumor uptake at 2 h post-injection.

[1] = pancreas, 0.037 MBq, read-out: Pancreas, Percentage Injected Dose/gram
[2] = skin, 0.037 MBq, read-out: Skin, Percentage Injected Dose/gram
[3] = spleen, 0.037 MBq, read-out: Spleen, Percentage Injected Dose/gram
[4] = stomach, 0.037 MBq, read-out: Stomach, Percentage Injected Dose/gram
[5] = tumor, 0.037 MBq, read-out: Tumor, Percentage Injected Dose/gram
[6] = tumor/blood, 0.037 MBq, read-out: Uptake Ratio Tumor/Blood
[7] = tumor/kidneys, 0.037 MBq, read-out: Uptake Ratio Tumor/Kidneys
[8] = tumor/liver, 0.037 MBq, read-out: Uptake Ratio Tumor/Liver
[9] = tumor/lung, 0.037 MBq, read-out: Uptake Ratio Tumor/Lung
[10] = tumor/muscle, 0.037 MBq, read-out: Uptake Ratio Tumor/Muscle

tissue uptake (normal organs except kidneys, 0.037 MBq, after 2 h post-injection, read-out: Normal organ uptakes except for the kidneys): < 3.2 %ID/g | tissue uptake at 0.5 h [1]: 1.48 ± 1.24 %ID/g | tissue uptake at 2 h [1]: 0.72 ± 0.53 %ID/g | tissue uptake at 4 h [1]: 0.52 ± 0.41 %ID/g | tissue uptake at 24 h [1]: 0.25 ± 0.06 %ID/g | tissue uptake at 2 h (pancreas, NDP blockade (10 μg NDP-MSH co-injected), read-out: Pancreas, Percentage Injected Dose/gram): 0.44 ± 0.37 %ID/g | tissue uptake at 2 h (pancreas, RGD blockade (3.5 μg RGD co-injected), read-out: Pancreas, Percentage Injected Dose/gram): 0.35 ± 0.19 %ID/g | tissue uptake at 0.5 h [2]: 4.53 ± 0.88 %ID/g | tissue uptake at 2 h [2]: 1.52 ± 0.66 %ID/g | tissue uptake at 4 h [2]: 1.17 ± 0.61 %ID/g | tissue uptake at 24 h [2]: 0.78 ± 0.19 %ID/g | tissue uptake at 2 h (skin, NDP blockade (10 μg NDP-MSH co-injected), read-out: Skin, Percentage Injected Dose/gram): 1.14 ± 0.38 %ID/g | tissue uptake at 2 h (skin, RGD blockade (3.5 μg RGD co-injected), read-out: Skin, Percentage Injected Dose/gram): 0.81 ± 0.13 %ID/g | tissue uptake at 0.5 h [3]: 2.18 ± 0.88 %ID/g | tissue uptake at 2 h [3]: 1.23 ± 0.62 %ID/g | tissue uptake at 4 h [3]: 1.14 ± 0.16 %ID/g | tissue uptake at 24 h [3]: 0.88 ± 0.3 %ID/g | tissue uptake at 2 h (spleen, NDP blockade (10 μg NDP-MSH co-injected), read-out: Spleen, Percentage Injected Dose/gram): 0.75 ± 0.37 %ID/g | tissue uptake at 2 h (spleen, RGD blockade (3.5 μg RGD co-injected), read-out: Spleen, Percentage Injected Dose/gram): 0.94 ± 0.3 %ID/g | tissue uptake at 0.5 h [4]: 7.61 ± 1.98 %ID/g | tissue uptake at 2 h [4]: 2.57 ± 0.38 %ID/g | tissue uptake at 4 h [4]: 2.46 ± 1.39 %ID/g | tissue uptake at 24 h [4]: 0.91 ± 0.67 %ID/g | tissue uptake at 2 h (stomach, NDP blockade (10 μg NDP-MSH co-injected), read-out: Stomach, Percentage Injected Dose/gram): 2.43 ± 0.8 %ID/g | tissue uptake at 2 h (stomach, RGD blockade (3.5 μg RGD co-injected), read-out: Stomach, Percentage Injected Dose/gram): 2.64 ± 0.1 %ID/g | tissue uptake at 0.5 h [5]: 11.1 ± 1.41 %ID/g | tissue uptake at 2 h [5]: 14.8 ± 2.94 %ID/g | tissue uptake at 4 h [5]: 12.6 ± 2.53 %ID/g | tissue uptake at 24 h [5]: 7.59 ± 2.04 %ID/g | tissue uptake at 2 h (tumor, NDP blockade (10 μg NDP-MSH co-injected), read-out: Tumor, Percentage Injected Dose/gram): 1.81 ± 0.64 %ID/g | tissue uptake at 2 h (tumor, RGD blockade (3.5 μg RGD co-injected), read-out: Tumor, Percentage Injected Dose/gram): 10.5 ± 1.18 %ID/g | tissue to tissue ratio at 0.5 h [6]: 3.48 | tissue to tissue ratio at 2 h [6]: 15.4 | tissue to tissue ratio at 4 h [6]: 25.1 | tissue to tissue ratio at 24 h [6]: 69 | tissue to tissue ratio at 2 h (tumor/blood, NDP blockade (10 μg NDP-MSH co-injected), read-out: Uptake Ratio Tumor/Blood): 5.66 | tissue to tissue ratio at 2 h (tumor/blood, RGD blockade (3.5 μg RGD co-injected), read-out: Uptake Ratio Tumor/Blood): 19.8 | tissue to tissue ratio at 0.5 h [7]: 0.16 | tissue to tissue ratio at 2 h [7]: 0.22 | tissue to tissue ratio at 4 h [7]: 0.18 | tissue to tissue ratio at 24 h [7]: 0.19 | tissue to tissue ratio at 2 h (tumor/kidneys, NDP blockade (10 μg NDP-MSH co-injected), read-out: Uptake Ratio Tumor/Kidneys): 0.03 | tissue to tissue ratio at 2 h (tumor/kidneys, RGD blockade (3.5 μg RGD co-injected), read-out: Uptake Ratio Tumor/Kidneys): 0.19 | tissue to tissue ratio at 0.5 h [8]: 2.75 | tissue to tissue ratio at 2 h [8]: 4.68 | tissue to tissue ratio at 4 h [8]: 4.32 | tissue to tissue ratio at 24 h [8]: 4.39 | tissue to tissue ratio at 2 h (tumor/liver, NDP blockade (10 μg NDP-MSH co-injected), read-out: Uptake Ratio Tumor/Liver): 0.63 | tissue to tissue ratio at 2 h (tumor/liver, RGD blockade (3.5 μg RGD co-injected), read-out: Uptake Ratio Tumor/Liver): 4.63 | tissue to tissue ratio at 0.5 h [9]: 2.08 | tissue to tissue ratio at 2 h [9]: 11.8 | tissue to tissue ratio at 4 h [9]: 11.8 | tissue to tissue ratio at 24 h [9]: 8.07 | tissue to tissue ratio at 2 h (tumor/lung, NDP blockade (10 μg NDP-MSH co-injected), read-out: Uptake Ratio Tumor/Lung): 1.38 | tissue to tissue ratio at 2 h (tumor/lung, RGD blockade (3.5 μg RGD co-injected), read-out: Uptake Ratio Tumor/Lung): 9.38 | tissue to tissue ratio at 0.5 h [10]: 29.1 | tissue to tissue ratio at 2 h [10]: 43.6 | tissue to tissue ratio at 4 h [10]: 96.7 | tissue to tissue ratio at 24 h [10]: 33 | tissue to tissue ratio at 2 h (tumor/muscle, NDP blockade (10 μg NDP-MSH co-injected), read-out: Uptake Ratio Tumor/Muscle): 8.62 | tissue to tissue ratio at 2 h (tumor/muscle, RGD blockade (3.5 μg RGD co-injected), read-out: Uptake Ratio Tumor/Muscle): 70
SMILES: CC(C)[C@H](NC(=O)[C@@H]1CCCN1C(=O)[C@H](CCCNC(=N)N)NC(=O)[C@H](CS)NC(=O)[C@H](Cc1c[nH]c2ccccc12)NC(=O)[C@H](CCCNC(=N)N)NC(=O)[C@@H](Cc1ccccc1)NC(=O)[C@H](Cc1c[nH]cn1)NC(=O)[C@H](CCC(=O)O)NC(=O)[C@H](CS)NC(=O)[C@H](CS)NC(=O)[C@H](CCCCN)NC(=O)[C@@H]1CC(=O)N[C@@H](CCCNC(=N)N)C(=O)NCC(=O)N[C@@H](CC(=O)O)C(=O)N[C@H](Cc2ccc(O)cc2)C(=O)N1)C(N)=O [^99mTc-RGD-Lys-(Arg^11)CCMSH, metal not drawn] (RGD[dY]DKCCEH[dF]RWCRPV-NH2; lactam N-5)
